Here are results for 20 compounds from patent US20110105555A1, “SUBSTITUTED N-IMIDAZO[2,1-B]THIAZOLE-5-SULFONAMIDE DERIVATIVES AS 5-HT6 LIGANDS” (priority 2008, published 2011).

Usually Ki stands for the equilibrium dissociation constant of an inhibitor or competing ligand from its target.

SMILES strings stand for the structures. Counter-ions that a name gives are not always drawn.

T1 sequence (P50406 whole entry): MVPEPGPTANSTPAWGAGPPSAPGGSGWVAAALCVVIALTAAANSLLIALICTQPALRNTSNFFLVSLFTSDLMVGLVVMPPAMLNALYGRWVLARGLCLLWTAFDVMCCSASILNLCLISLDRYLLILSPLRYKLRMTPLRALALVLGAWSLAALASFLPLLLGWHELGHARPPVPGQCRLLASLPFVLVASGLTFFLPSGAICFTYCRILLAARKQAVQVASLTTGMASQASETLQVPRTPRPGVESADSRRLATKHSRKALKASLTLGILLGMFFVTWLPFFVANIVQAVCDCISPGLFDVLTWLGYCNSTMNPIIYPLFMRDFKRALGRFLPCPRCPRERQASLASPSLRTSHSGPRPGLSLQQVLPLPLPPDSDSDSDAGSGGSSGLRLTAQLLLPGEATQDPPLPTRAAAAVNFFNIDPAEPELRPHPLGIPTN

One assay concerns the target T1, 5HT6-human recombinant receptor (Homo sapiens, UniProt P50406).
Experiment: not given
Conditions: cited from earlier work.
For `CN(C)CCc1c[nH]c2ccc(NS(=O)(=O)c3ccc4c(Cl)cccc4c3)cc12` [Compound E-6837, 5-chloro-N-[3-(2-(dimethylamino)ethyl)-1H-indol-5-yl]naphthalene-2-sulphonamide], the “binding for the recombinant human 5-HT6 receptor” value was “selective and high affinity binding”.

Test system in the next assay: not given
Experiment: not given
The note with it: in vivo; cited from earlier work.
For `CN(C)CCc1c[nH]c2ccc(NS(=O)(=O)c3ccc4c(Cl)cccc4c3)cc12` [Compound E-6837, 5-chloro-N-[3-(2-(dimethylamino)ethyl)-1H-indol-5-yl]naphthalene-2-sulphonamide], the body weight result is listed as “significant body weight loss” and the food intake entry is reported as “reduction in the food intake”.

For a further assay, the target named is T1, 5HT6-human recombinant receptor. Description: Binding to serotonin receptor 5-HT6 ([3H]-LSD radioligand, HEK-293 cell membranes). On the set-up: purchased Receptor Biology; host or cells: HEK-293 cells (membranes). Conditions: [3H]-LSD 2.7 nM, 60 minutes at 37° C., tests in triplicate. As for the experimental part:
Binding to Serotonin Receptor 5ht6
Cell membranes of HEK-293 cells expressing the 5HT6-human recombinant receptor were supplied by Receptor Biology. In said membranes the receptor concentration is 2.18 pmol/mg protein and the protein concentration is 9.17 mg/ml. The experimental protocol follows the method of B. L. Roth et al. [B. L. Roth et al., The Journal of Pharmacology and Experimental Therapeutics, 1994, 268, 1403] with the following slight changes. The respective part of the literature description is hereby incorporated by reference and forms part of the disclosure.
The commercial membrane is diluted (1:40 dilution) with the binding buffer: 50 mM Tris-HCl, 10 mM MgCl2, 0.5 mM EDTA (pH 7.4). The radioligand used is [^3H]-LSD at a concentration of 2.7 nM with a final volume of 200 μl. incubation is initiated by adding 100 μl of membrane suspension, (≈22.9 μg membrane protein), and is prolonged for 60 minutes at a temperature of 37° C. The incubation is ended by fast filtration in a Brandel Cell Harvester through fiber glass filters made by Schleicher & Schnell GF 3362 pretreated with a solution of polyethylenimine at 0.5%. The filters are washed three times with three milliliters of buffer Tris-HCl 50 mM pH 7.4. The filters are transferred to flasks and 5 ml of Ecoscint H liquid scintillation cocktail are added to each flask. The flasks are allowed to reach equilibrium for several hours before counting with a Wallac Winspectral 1414 scintillation counter. Non-specific binding is determined in the presence of 100 μM of serotonin, Tests were made in triplicate. The inhibition constants (Ki, nM) were calculated by non-linear regression analysis using the program EBDA/LIGAND described in Munson and Rodbard, Analytical Biochemistry, 1980, 107, 220, which is hereby incorporated by reference and forms part of the disclosure.
In the case of `O=S(=O)(Nc1ccc2[nH]ncc2c1)c1c(Cl)nc2sccn12` [Compound 25, 6-Chloro-imidazo[2,1-b]thiazole-5-sulfonic acid (1H-indazol-5-yl)-amide hydrochloride], the Ki amounted to 5.7 nM. Take `Cc1nc2cc(NS(=O)(=O)c3c(Cl)nc4sccn34)ccc2s1` [Compound 4, 6-Chloro-imidazo[2,1-b] thiazole-5-sulfonic acid (2-methyl-benzothiazol-5-yl)-amide]: the Ki turned out to be 14.5 nM.

Take `O=S(=O)(Nc1ccc2c(c1)NCC2)c1c(Cl)nc2sccn12` [Compound 34, 6-Chloro-imidazo[2,1-b]thiazole-5-sulfonic acid (2,3-dihydro-1H-indol-6-yl)-amide]: the Ki was determined as 7.4 nM. For the compound `CC(=O)N1CCc2cc(NS(=O)(=O)c3c(Cl)nc4sccn34)ccc21` [Compound 19, 6-Chloro-imidazo[2,1-b]thiazole-5-sulfonic acid (1-acetyl-2,3-dihydro-1H-indol-5-yl)-amide], the Ki is 1.6 nM. The same measure, in the same setting: for `O=S(=O)(Nc1ccc2c(c1)CCC2)c1c(Cl)nc2sccn12` [Compound 1, 6-Chloro-imidazo[2,1-b] thiazole-5-sulfonic acid indan-5-ylamide] the value was 11.1 nM; for `O=C1CCc2ccc(NS(=O)(=O)c3c(Br)nc4sccn34)cc21` [Compound 41, 6-Bromo-imidazo[2,1-b]thiazole-5-sulfonic acid (3-oxo-indan-5-yl)-amide hydrochloride], 4.9 nM. For the compound `O=S(=O)(Nc1ccc2c(c1)CCCC2)c1c(Cl)nc2sccn12` [Compound 30, 6-Chloro-imidazo[2,1-b]thiazole-5-sulfonic acid (5,6,7,8-tetrahydro-naphthalen-2-yl)-amide], the inhibitory constant (Ki) was 19 nM. On the same count and under the same terms, for `O=C1CCc2ccc(NS(=O)(=O)c3c(Cl)nc4sccn34)cc21` [Compound 28, 6-Chloro-imidazo[2,1-b]thiazole-5-sulfonic acid (3-oxo-indan-5-yl)-amide] the value was 7.1 nM; for `CC(C)(C)OC(=O)n1ncc2cc(NS(=O)(=O)c3c(Br)nc4sccn34)ccc21` [Compound 60, 5-(6-Bromo-imidazo[2,1-b]thiazole-5-sulfonylamino)-indazole-1-carboxylic acid tert-butyl ester], 6.6 nM; for `CC(=O)N1CCc2ccc(NS(=O)(=O)c3c(Br)nc4sccn34)cc21` [Compound 38, 6-Bromo-imidazo[2,1-b]thiazole-5-sulfonic acid (1-acetyl-2,3-dihydro-1H-indol-6-yl)-amide], 37.2 nM. As to `O=S(=O)(Nc1ccc2ncsc2c1)c1c(Cl)nc2sccn12` [Compound 3, 6-Chloro-imidazo[2,1-b] thiazole-5-sulfonic acid benzothiazol-6-ylamide], the inhibition constant Ki worked out at 12.7 nM. With `O=S(=O)(Nc1ccc2c(c1)CCN2)c1c(Cl)nc2sccn12` [Compound 23, 6-Chloro-imidazo[2,1-b]thiazole-5-sulfonic acid (2,3-dihydro-1H-indol-5-yl)-amide hydrochloride], the Ki turned out to be 20 nM. Still for that read-out and setting: for `CC(=O)N1CCc2cc(NS(=O)(=O)c3c(Br)nc4sccn34)ccc21` [Compound 37, 6-Bromo-imidazo[2,1-b]thiazole-5-sulfonic acid (1-acetyl-2,3-dihydro-1H-indol-5-yl)-amide] the value was 1.3 nM. Same read-out and setting: for `O=S(=O)(Nc1ccc2c(c1)COC2)c1c(Cl)nc2sccn12` [Compound 31, 6-Chloro-imidazo[2,1-b]thiazole-5-sulfonic acid (1,3-dihydro-isobenzo furan-5-yl)-amide] the value was 68 nM; for `CN(C)c1ccc(NS(=O)(=O)c2c(Cl)nc3sccn23)cc1` [Compound 16, 6-Chloro-imidazo[2,1-b] thiazole-5-sulfonic acid (4-dimethylamino-phenyl)-amide], 8.7 nM; for `CC(=O)N1CCc2ccc(NS(=O)(=O)c3c(Cl)nc4sccn34)cc21` [Compound 20, 6-Chloro-imidazo[2,1-b]thiazole-5-sulfonic acid (1-acetyl-2,3-dihydro-1H-indol-6-yl)-amide], 12.8 nM. Still for that read-out and setting: for `Cn1ccc2cc(NS(=O)(=O)c3c(Cl)nc4sccn34)ccc21` [Compound 15, 6-Chloro-imidazo[2,1-b] thiazole-5-sulfonic acid (1methyl-1H-indol-5-yl)-amide] the value was 23 nM. For the compound `O=S(=O)(Nc1ccc2[nH]ccc2c1)c1c(Br)nc2sccn12` [Compound 36, 6-Bromo-imidazo[2,1-b]thiazole-5-sulfonic acid (1H-indol-5-yl)-amide], the Ki came out at 10 nM. On the same count and under the same terms, then `CCN(CC)c1ccc(NS(=O)(=O)c2c(Cl)nc3sccn23)cc1` [Compound 32, 6-Chloro-imidazo[2,1-b]thiazole-5-sulfonic acid (4-diethylamino-phenyl)-amide hydrochloride], with 5.4 nM.
